Experimental data from patent US20100167275A1, “Potassium channel mutants of the yeast Saccharomyces cerevisiae and their use for screening eukaryotic potassium channels” (sanofi-aventis Deutschland GmbH, priority 2000, published 2010).
Where “and” joins values, the source holds several entries; their conditions need not be identical. Identical values can stand only once.

Tests used:
gpIRK1 = target: T1, gpIRK1 (Cavia porcellus, UniProt P52185); assay: Complementation of growth deficiency by gpIRK1 in the presence of CsCl; format: cell-based, guinea pig; details: 2 mM CsCl
T1 construct: expressed in transfected cells; host or cells: Saccharomyces cerevisiae Δtrk1 Δtrk2 (YM193) and Δtrk1 Δtrk2 Δtok1 (YM198), vector p423-GPD3
T1 sequence (P52185 1-427): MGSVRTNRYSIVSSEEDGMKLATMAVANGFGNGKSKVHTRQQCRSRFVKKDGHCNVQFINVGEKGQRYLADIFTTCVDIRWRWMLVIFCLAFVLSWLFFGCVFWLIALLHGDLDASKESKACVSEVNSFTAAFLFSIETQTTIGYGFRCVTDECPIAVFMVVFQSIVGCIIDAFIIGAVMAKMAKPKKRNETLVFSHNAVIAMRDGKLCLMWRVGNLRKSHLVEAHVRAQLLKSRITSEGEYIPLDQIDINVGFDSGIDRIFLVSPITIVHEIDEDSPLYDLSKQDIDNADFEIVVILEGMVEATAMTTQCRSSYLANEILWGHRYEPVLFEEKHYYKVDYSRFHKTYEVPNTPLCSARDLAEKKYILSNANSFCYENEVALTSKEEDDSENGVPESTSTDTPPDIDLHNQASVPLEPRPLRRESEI
Text: (§1) Each of the strains YM168 (Δtrk1 Δtrk2) and YM182 (Δtrk1 Δtrk2 Δtok1) was transformed with the human potassium channels Kv1.5 ((Fedida, D. et al, 1998); YM190 and YM195) and HERG1 ((Fedida, D. et al., 1998); YM191 and YM196) in p423-GPD3, respectively, as yeast expression vector. gpIRK1 ((Tang, W. et al., 1995); YM193 and YM198) acted as positive control in p423-GPD3 as yeast expression vector (Mumberg, D. et al., 1995; Ronicke, V. et al., 1997). The blank vector p423-GPD3 (YM189 and YM194) acted as negative control. The transformed yeast strains were plated onto (−)HIS/80 mM KCl medium. After this, patches of single colonies were replica-plated onto DPM/5 mM KCl (pH 6.5) to check the capacity of complementing the potassium deficiency.

human Kv1.5 channel = target: T2, human Kv1.5 channel (Homo sapiens, UniProt P22460, DEL187-187/DEL55-55/P188G/P307A/R154P); assay: Complementation of growth deficiency by Kv1.5 in the presence of activators; format: cell-based; details: 2 mM CsCl
T2 construct: expressed in transfected cells; host or cells: Saccharomyces cerevisiae Δtrk1 Δtrk2 Δtok1 (YM195; also Δtrk1 Δtrk2 YM190), vector p423-GPD3
Text: as §1
(§2) Kv1.5: Rb^+ extends the hyperpolarization phase. This means that the inwardly directed K^+ flux is more prolonged and increases the possibility of complementing the growth deficiency.
The yeast strains YM 194 and YM 195 were tested in DPM/-HIS/5 mM KCl with 1 mM RbCl for the different growth behavior in liquid medium. To this end, 10 ml of overnight culture were set up in DPM/-HIS/80 mM KCl and, next morning, brought to an OD600 of 0.05 with the relevant media (final volume: 20 ml). The optical density at 600 nm was determined at defined intervals with the aid of a photometer.

human HERG1 channel = target: T3, human HERG1 channel (Homo sapiens, UniProt Q12809); assay: Complementation of growth deficiency by HERG1 on culture plates in the presence of activators; format: cell-based; details: 2 mM CsCl, DPM 5 mM KCl pH 6.5, FIG. 4
T3 construct: expressed in transfected cells; host or cells: Saccharomyces cerevisiae Δtrk1 Δtrk2 Δtok1 (YM182 background; strain YM196), vector p423-GPD3
Text: as §1, §2
HERG: Cs^+ extends the hyperpolarization phase. This means that the inwardly directed K^+ flux is more prolonged and increases the possibility of complementing the growth deficiency. This channel is inhibited by Cs^+. IRK1: Cs^+ blocks this channel.

[1] = target: human potassium channel HERG1 (Homo sapiens, UniProt Q12809)
Protocol: FIG. 7: Expression of the human potassium channel HERG1 in the triple mutant Δtrk1Δtrk2Δtok1 in DPM-HIS/-TRP 5 mM KCl medium in 96-well ELISA plates in the presence of 0.5 mM CsCl as activator.
(§3) The various inhibitors were employed at a final concentration of in each case 30 μM. To measure the cell density, a commercially available LacZ reporter system pYX232 by Ingenius (cat. No. MBV-032-10) was transformed into the yeast strains to be studied. Expression of the LacZ reporter gene was under the control of the constitutive Saccharomyces cerevisiae promotor TPI for the triose phosphate isomerase gene. The LacZ enzyme activity was measured via detecting the luminescence after 24 hours' growth (density of the starter culture: 0.01 OD620) using a commercially available assay system by TROPIX. The values correspond to the average of in each case 4 measurements±SD. The two different assays were carried out independently of each other on two different days.
FIG. 8: Expression of the human potassium channel HERG1 in the triple mutant Δtrk1Δtrk2Δtok1 in DPM-HIS 5 mM KCl medium in 96-well ELISA plates in the presence of 0.5 mM CsCl as activator.
The various inhibitors were employed at a final concentration of in each case 30 μM. The cell density was measured after 38 hours' growth (density of the starter culture: 0.03 OD620) via determination of the optical density at a wavelength of 620 nm. The values corresponded to the average of in each case 4 measurements±SD.
All growth assays in the triple mutant Δtrk1Δtrk2Δtok1 were carried out in growth medium DPM (defined potassium medium) at the pH and the potassium concentration stated in each case.
(§4) All substances, dissolved in DMSO, were employed in a final concentration of 30 μM. As a control, cells were measured with the same final concentration of 0.5% DMSO without substance, without DMSO addition or without substance.

[2] = test system: Saccharomyces cerevisiae wild-type strain; format: cell-based; details: 30 μM, wild-type cells, DPM -HIS/-TRP, 0.5 mM CsCl, 24 hours growth, TROPIX kit
Protocol: as §3, with “FIG. 9: Growth of the Saccharomyces cerevisiae wild-type strain in DPM-HIS/-TRP 5 mM KCl medium in 96-well ELISA plates in the presence of 0.5 mM CsCl. The various” for “The various”, “by TROPIX.” for “by TROPIX. The values correspond to the average of in each case 4 measurements±SD. The two different assays were carried out independently of each other on two different days.”
The values correspond to the average of in each case 4 measurements±SD. The two different assays were carried out independently of each other on two different days.
as §4

[3] = test system: Saccharomyces cerevisiae wild-type strain; assay: Growth of wild-type strain in DPM medium with 5 mM or 80 mM KCl, OD 620 nm; format: cell-based; details: 30 μM
Text: However, the present results could not exclude that the inhibitory effect found for these substances can possibly also be attributed to an inhibition of other proteins which are essential for the growth of yeast cells. […]

[4] = wild-type cells, DPM, 5 mM KCl, 24 hours growth, starting culture 0.01 OD
[5] = wild-type cells, DPM, 80 mM KCl, 24 hours growth, starting culture 0.01 OD

Chain of human potassium channel HERG1 (Q12809 whole entry): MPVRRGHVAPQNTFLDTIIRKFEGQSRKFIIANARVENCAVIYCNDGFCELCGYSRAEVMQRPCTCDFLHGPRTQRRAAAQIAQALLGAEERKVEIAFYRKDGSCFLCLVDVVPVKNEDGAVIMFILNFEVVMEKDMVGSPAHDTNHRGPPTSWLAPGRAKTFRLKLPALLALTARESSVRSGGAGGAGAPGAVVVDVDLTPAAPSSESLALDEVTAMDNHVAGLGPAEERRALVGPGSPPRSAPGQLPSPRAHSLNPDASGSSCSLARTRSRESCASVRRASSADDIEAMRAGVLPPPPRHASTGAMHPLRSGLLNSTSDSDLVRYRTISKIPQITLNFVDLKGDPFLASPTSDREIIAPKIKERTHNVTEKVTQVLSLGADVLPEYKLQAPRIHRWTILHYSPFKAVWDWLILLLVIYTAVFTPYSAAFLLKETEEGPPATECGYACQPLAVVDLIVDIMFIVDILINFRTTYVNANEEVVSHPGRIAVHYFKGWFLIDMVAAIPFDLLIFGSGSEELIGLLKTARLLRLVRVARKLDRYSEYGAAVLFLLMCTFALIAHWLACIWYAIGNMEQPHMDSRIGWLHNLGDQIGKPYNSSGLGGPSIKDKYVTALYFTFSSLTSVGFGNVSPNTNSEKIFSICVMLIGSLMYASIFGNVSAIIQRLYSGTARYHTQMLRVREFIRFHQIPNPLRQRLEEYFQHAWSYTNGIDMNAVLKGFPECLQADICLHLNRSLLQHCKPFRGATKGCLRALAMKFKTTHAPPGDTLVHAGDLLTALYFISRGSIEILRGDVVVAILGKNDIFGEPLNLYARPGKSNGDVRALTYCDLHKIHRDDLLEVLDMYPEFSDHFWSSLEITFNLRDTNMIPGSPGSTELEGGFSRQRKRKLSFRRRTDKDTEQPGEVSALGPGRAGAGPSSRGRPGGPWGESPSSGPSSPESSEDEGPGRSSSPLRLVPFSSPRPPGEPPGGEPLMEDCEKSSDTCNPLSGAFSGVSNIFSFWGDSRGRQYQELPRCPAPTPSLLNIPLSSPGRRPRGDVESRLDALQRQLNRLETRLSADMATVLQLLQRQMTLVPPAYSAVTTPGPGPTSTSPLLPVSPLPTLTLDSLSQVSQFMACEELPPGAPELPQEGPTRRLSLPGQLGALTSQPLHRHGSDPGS
T3 sequence (Q12809 whole entry): as above
T2 sequence (P22460 with tags, fused parts or gaps DEL55-55/R154P/DEL187-187/P188G/P307A): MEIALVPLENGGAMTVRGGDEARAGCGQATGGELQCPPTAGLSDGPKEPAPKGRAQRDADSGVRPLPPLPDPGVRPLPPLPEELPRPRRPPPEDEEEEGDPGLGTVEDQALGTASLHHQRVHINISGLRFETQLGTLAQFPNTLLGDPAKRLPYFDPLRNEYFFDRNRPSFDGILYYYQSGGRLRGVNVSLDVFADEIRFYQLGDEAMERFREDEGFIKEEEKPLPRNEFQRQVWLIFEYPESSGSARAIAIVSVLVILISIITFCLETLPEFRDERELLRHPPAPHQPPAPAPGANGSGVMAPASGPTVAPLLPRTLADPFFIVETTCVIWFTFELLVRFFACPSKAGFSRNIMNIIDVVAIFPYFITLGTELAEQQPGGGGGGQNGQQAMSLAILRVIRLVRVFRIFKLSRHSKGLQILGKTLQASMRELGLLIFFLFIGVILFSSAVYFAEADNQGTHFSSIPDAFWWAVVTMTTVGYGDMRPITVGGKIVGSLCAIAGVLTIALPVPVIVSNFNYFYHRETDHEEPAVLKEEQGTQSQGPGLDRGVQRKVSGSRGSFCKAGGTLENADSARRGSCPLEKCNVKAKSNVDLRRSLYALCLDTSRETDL

[Cl-].[Cs+] [CsCl]
complementation of the growth deficiency by gpIRK1 in the presence of CsCl (gpIRK1): inhibited | complementation of the growth deficiency by Kv1.5 in the presence of CsCl (human Kv1.5 channel): inhibited | complementation of the growth deficiency of the Δtrk1 Δtrk2 Δtok1 mutant by human HERG1 in the presence of activator (human HERG1 channel): fully complementing

O=c1[nH]c2ccccc2n1C1CCN(CCCC(c2ccc(F)cc2)c2ccc(F)cc2)CC1 [Pimozide, 1-(4,4-bis(P-fluorophenyl)butyl)-4-(2-oxo-1-benzimidazolinyl)-piperidine]
Exp. 1 (growth, OD620 nm) [1]: 0.004 | Exp. 2 (growth, OD620 nm) [1]: 0.004 | Exp. 3 (growth, OD620 nm) [1]: 0.005 | Exp. 4 (growth, OD620 nm) [1]: 0.005 | Mean growth (OD620 nm) [1]: 0.0045 | complementation of the growth deficiency of the triple mutant by human HERG1 in the presence of the substance [1]: can no longer complement | Exp. 1 (LacZ luminescence), ASSAY 1 ([2]; ASSAY 1): 357.4 | Exp. 2 (LacZ luminescence), ASSAY 1 ([2]; ASSAY 1): 747.9 | Exp. 3 (LacZ luminescence), ASSAY 1 ([2]; ASSAY 1): 804.6 | Exp. 4 (LacZ luminescence), ASSAY 1 ([2]; ASSAY 1): 585.4 | Mean growth (LacZ luminescence), ASSAY 1 ([2]; ASSAY 1, mean of 4): 623.825 | Exp. 1 (LacZ luminescence), ASSAY 2 ([2]; ASSAY 2): 905 | Exp. 2 (LacZ luminescence), ASSAY 2 ([2]; ASSAY 2): 2176 | Exp. 3 (LacZ luminescence), ASSAY 2 ([2]; ASSAY 2): 496.5 | Exp. 4 (LacZ luminescence), ASSAY 2 ([2]; ASSAY 2): 573.4 | Mean growth (LacZ luminescence), ASSAY 2 ([2]; ASSAY 2, mean of 4): 1037.725 | toxic effect on yeast cells (Saccharomyces cerevisiae) ([3]; growth medium containing 80 mM KCl, FIG. 10): no generally toxic effect | growth OD 620 nm, 5 mM KCl, measurement 1 [3, 4]: 0.904 | growth OD 620 nm, 5 mM KCl, measurement 2 [3, 4]: 0.823 | growth OD 620 nm, 5 mM KCl, measurement 3 [3, 4]: 0.305 | growth OD 620 nm, 5 mM KCl, measurement 4 [3, 4]: 0.614 | 5 mM KCl (average growth, OD 620 nm) ([3]; wild-type cells, DPM, 5 mM KCl, 24 hours growth, starting culture 0.01 OD, average of 4): 0.6615 | growth OD 620 nm, 80 mM KCl, measurement 1 [3, 5]: 3.673 | growth OD 620 nm, 80 mM KCl, measurement 2 [3, 5]: 3.505 | growth OD 620 nm, 80 mM KCl, measurement 3 [3, 5]: 3.46 and 3.48 | growth OD 620 nm, 80 mM KCl, measurement 4 [3, 5]: 3.441 | 80 mM KCl (average growth, OD 620 nm) ([3]; wild-type cells, DPM, 80 mM KCl, 24 hours growth, starting culture 0.01 OD, average of 4): 3.5 and 3.52
